Laboratory results: EP3461480A1, “COMBINATION OF A DNA DAMAGE RESPONSE CELL CYCLE CHECKPOINT INHIBITORS AND BELINOSTAT FOR TREATING CANCER” (ONXEO, priority 2017, dated 2019)

Legend:
Type in all cases: cell-based
[1] = test system: triple negative breast cancer (TBNC) cell line MDA-MB-231; experiment: XTT cell survival assay and CalcuSyn combination index, MDA-MB-231; conditions: Homo sapiens, monotherapy, XTT assay, dose at which 50% of the cells are viable
Method: (§1) Cell cultures were performed with the triple negative breast cancer (TBNC) cell line MDA-MB-231, the histiocytic lymphoma cell line U937 and the non-tumor mammary cell line MCF-10A. Cells were grown according to the supplier's instructions. Cell lines were maintained at 37°C in a humidified atmosphere at 5% CO2, except the MDA-MB-231 cell line which was maintained at 0% CO2.
(§2) In a first step, the characterization of the effect of drugs monotherapy on cell survival (tumour and non-tumour cells) was performed. MDA-MB-231 (5.10^3 cells/well), MCF-10A (5.10^3 cells/well) and U937 (2.10^4 cells/well) were seeded in 96 well-plates and incubated 24 hours at +37°C before addition of the drug at increasing concentrations for 4 to 7 days. Following drug exposure, cell survival was measured using the XTT assay (Sigma Aldrich). Briefly, the XTT solution was added directly to each well containing cell culture and the cells incubated for 4 to 24 hours at 37°C before reading the absorbance at 490 nm and 690 nm using a microplate reader (BMG Fluostar, Galaxy). Cell survival is calculated as the ratio of living treated cells to living mock-treated cells. The IC50 (which represents the dose at which 50% of the cells are viable) is calculated by a non-linear regression model using GraphPad Prism software (version 5.04) by plotting the percentage viability against the Log of the drug concentration on each cell line.
(§3) In a second step, analysis and quantification of the drug combination efficacy were performed. Cells were seeded in 96-well plates at the appropriate densities and treated with belinostat (PXD-101 - Spectrum) and/or ATR (ATRi - AZD6738, Selleckchem; VE-821, Selleckchem) simultaneously during 4 to 7days. Belinostat + ATRi combinations was performed at a constant ratio (from IC50/8 to IC50*8) as previously described (Chou TC, Talalay P. Adv Enzyme Regul. 1984;22:27-55 (Quantitative analysis of dose-effect relationships: the combined effects of multiple drugs or enzyme inhibitors). Cell survival was measured using the XTT assay (see above).
Combination efficacy is evaluated by "the combination index (CI)" which is determined using the CalcuSyn software tool based on the Chou Talalay method. A CI could be interpreted as follows: CI<1, =1, and >1 indicate synergism; additive effect and antagonism, respectively (CalculSyn manual, Biosoft, 2006). Note that we define synergism as a more than expected additive effect, and antagonism as a less than expected additive effect. […]
(§4) In a second step, analysis and quantification of the drug combination efficacy were performed. […] Cell survival is measured using the XTT assay (see above).
(§5) Combination efficacy is evaluated by "the combination index (CI)" which was determined using the CalcuSyn software tool based on the Chou Talalay method. […]

[2] = test system: histiocytic lymphoma cell line U937; experiment: XTT cell survival assay and CalcuSyn combination index, U937; conditions: Homo sapiens, U-937, monotherapy, XTT assay, dose at which 50% of the cells are viable
Method: as §1
as §2, with “The IC50 (which represents the dose at which 50% of the cells are viable) is calculated by a non-linear regression model using GraphPad Prism software (version 5.04) by plotting the percentage viability against the Log of the drug concentration on each cell line.” left out
as §3, with “Cells were seeded in 96-well plates at the appropriate densities and treated with belinostat (PXD-101 - Spectrum) and/or ATR (ATRi - AZD6738, Selleckchem; VE-821, Selleckchem) simultaneously during 4 to 7days.” left out
Combination efficacy is evaluated by "the combination index (CI)" which is determined using the CalcuSyn software tool based on the Chou Talalay method. […]
as §4, §5

[3] = test system: non-tumor mammary cell line MCF-10A; experiment: XTT cell survival assay, non-tumor cells MCF-10A; conditions: same drug doses as MDA-MB-231, 7 days; for sensitivity of non-tumor cells: XTT survival
Method: Following drug exposure, cell survival was measured using the XTT assay (Sigma Aldrich). […] Following drug exposure, cell survival was measured using the XTT assay (Sigma Aldrich).

Compound | IC50 [1] | IC50 [2] | sensitivity of non-tumor cells [3] | sensitivity of non-tumor cells on adding belinostat ([3]; inhibitor plus belinostat)
CS(=O)(=O)c1ccc(-c2cnc(N)c(C(=O)Nc3ccccc3)n2)cc1 [VE-821, 3-amino-6-(4-methylsulfonylphenyl)-N-phenylpyrazine-2-carboxamide] | 18 µM | – | – | –
Cc1cnc(NC(=O)Nc2cc(Br)c(C)cc2OC[C@@H]2CNCCO2)cn1 [LY2603618, 1-[5-bromo-4-methyl-2-[[(2S)-morpholin-2-yl]methoxy]phenyl]-3-(5-methylpyrazin-2-yl)urea] | 3.2 µM | 1.1 µM | showed a sensitivity | –
C[C@@H]1COCCN1c1cc(C2([S@](C)(=N)=O)CC2)nc(-c2cc[nH]c3nccc2-3)n1 [AZD6738, 4-[4-[1-[[S(R)]-S-methylsulfonimidoyl]cyclopropyl]-6-[(3R)-3-methyl-4-morpholinyl]-2-pyrimidinyl]-1H-pyrrolo[2,3-b]pyridine] | 2.5 µM | 0.5 µM | showed a sensitivity | didn't increase
O=C(/C=C/c1cccc(S(=O)(=O)Nc2ccccc2)c1)NO [Belinostat, (2E)-N-hydroxy-3-[3-(phenylsulfamoyl)phenyl]prop-2-enamide] | 0.25 µM | 0.25 µM | insensitive | –
